Test results as given in patent publication US10905657B2, “Solid dispersions of Coenzyme Q10” (Indena S.P.A., priority 2015, dated 2021).

Assay: Pharmacokinetic study in rats after single oral dose
Settings: male, Sprague-Dawley, rat, in vivo, 50 mg/kg, intragastric gavage, single dose 50 mg Coenzyme Q10/Kg, suspended in 1% carboxymethyl cellulose, plasma
Procedure: Pharmacokinetic parameters (Tmax, Cmax, absolute bioavailability) were determined in rats after the oral administration of a single dose of Coenzyme Q10 as crystalline powder and as solid dispersion with phospholipids.
Male Sprague-Dawley rats, weighting 300-350 g were used for the pharmacokinetic experiment. Rats were fasted 16 hours before administration with free access to water.
Coenzyme Q10 as crystalline powder and as solid dispersion with phospholipids were suspended in 1% carboxymethyl cellulose water suspension and administered by intragastric gavage as a single dose of 50 mg of Coenzyme Q10/Kg.
Blood samples were collected from tail vein after 0.5-1.0-2.0-4.0-8.0-12.0 and 24 hours after administration.
Plasma was obtained from blood samples by centrifugation at 5.000×g for 15 minutes and kept frozen (−20° C.) until analysis. After protein sedimentation, Coenzyme Q10 was extracted by plasma samples with n-hexane; the extraction step with hexane was repeated for three times. The hexane phases, separated by centrifugation, were collected and the solvent was removed by evaporation under nitrogen. The residue was dissolved in 2-propanol for HPLC/MS analysis at 275 nm, using internal standard method for Coenzyme Q10 quantification.
The following pharmacokinetic parameters were calculated: […]

Which Cmax does the source give for `COC1=C(OC)C(=O)C(C/C=C(\C)CC/C=C(\C)CC/C=C(\C)CC/C=C(\C)CC/C=C(\C)CC/C=C(\C)CC/C=C(\C)CC/C=C(\C)CC/C=C(\C)CCC=C(C)C)=C(C)C1=O` [Crystalline Coenzyme Q10, Coenzyme Q10] here?
The Cmax was 230 ng/mL.

What about the Tmax of the same compound?
Its Tmax is 3.8 h.

What about the AUC(0-t) (0-24 hours) of the same compound?
The AUC(0-t) was 4100 ng·h/mL.
